Values joined by “and” are separate entries in the source; they are usually repeats but may differ in a detail not shown here. Identical values can stand only once.

The source of these data is patent US20080269162A1, “Novel Medicaments for Anti-Retroviral Treatments” (priority 2006, published 2008).

For the assay, the system named is RTMC virus (clade B), resistant to AZT. The assay is described as follows: RT activity in supernatant and cell number of CEM cells infected by RTMC virus. The class given is cell-based, HIV. The settings on record: 0.1 μM, RMTC viral dilution 5 · 10^−4. As to the method:
The cells were counted every three days and the cultures diluted with a view of culturing 0.5*10^6 cells/mL; the RT activity assay was done following a protocol comprising:
measurement of the radioactivity of the DNA synthesized, said radioactivity being proportional to the quantity of tritiated thymidine incorporated into said synthesized DNA, which itself is proportional to RT activity and thus to the number of viruses produced by replication.
The contents (1 mL) of each well was centrifuged for 5 minutes at 1500 r.p.m. (Jouan GR 422 centrifuge) and then the culture supernatant obtained was ultracentrifuged at 4° C., 95000 r.p.m. (Beckman TL100 ultracentrifuge) in order to obtain the viral pellet.
The viral pellet was then placed in a test tube containing 10 μL of NTE buffer to which 0.1% of triton was added, which releases the viral enzymes, particularly RT; the tube was then vortexed, covered with parafilm and held for 10 minutes at 4° C. and then frozen at −20° C.
As many test tubes containing this reaction mixture were prepared as there were samples to be tested. […]
The amount of radioactivity that was measured is proportional to the RT activity present and, consequently, to the number of viruses produced by replication. […]

As to 3′-azidothymidine [AZT], under “day 3”, the “Number of cells per mL, D3” value is 2.7 10^6 Cell/mL and 3.3 10^6 Cell/mL. Moreover, the “Number of cells per mL, D10” value (day 10) is 0.4 10^6 Cell/mL and 0.8 10^6 Cell/mL.
